Reference: ChEMBL document CHEMBL4715814, “Design, synthesis and biological activity evaluation of novel 4-subtituted 2-naphthamide derivatives as AcrB inhibitors” (2018)
Calls of active or inactive are those of the source. The calls are words filed in the database; no cut-off is given here.

Key:
Escherichia coli [1] = test: (§1) Antibacterial activity against Wild type Escherichia coli BW25113 assessed as inhibition of AcrB efflux pump by mesuring the glucose-induced nile red efflux at 500 uM preincubated with CCCP for 15 mins followed by compound addition after 15 mins nile red added and incubated for 3 hrs in shaker by fluorimetric analysis; assay type: functional, organism-based; settings: time 195.0 min
Cell membrane [2] = test: Induction of outer membrane permeabilization in wild type Escherichia coli BW25113 assessed as increase in nitrocefin hydrolysis at 512 ug/ml measured for 30 mins in presence of CCCP by spectrophotometry analysis; assay type: subcellular; settings: dose 512.0 µg/ml
Escherichia coli [3] = test: Potentiation of chloramphenicol-induced antibacterial activity against AcrB deficient Escherichia coli BW25113 assessed as chloramphenicol MIC at 256 ug/ml incubated for 18 hrs under aerobic condition by checkerboard titration assay (reference value: 2 ug/ml); assay type: functional; settings: dose 256 µg/ml
Escherichia coli [4] = test: Potentiation of TPP-induced antibacterial activity against AcrB deficient Escherichia coli BW25113 assessed as TPP MIC at 256 ug/ml incubated for 18 hrs under aerobic condition by checkerboard titration assay (reference value: 256 ug/ml); assay type: functional; settings: dose 256 µg/ml
Escherichia coli [5] = test: Potentiation of erythromycin-induced antibacterial activity against AcrB deficient Escherichia coli BW25113 assessed as erythromycin MIC at 256 ug/ml incubated for 18 hrs under aerobic condition by checkerboard titration assay (reference value: 32 ug/ml); assay type: functional; settings: dose 256 µg/ml
Escherichia coli [6] = test: Potentiation of TPP-induced antibacterial activity against wild type Escherichia coli BW25113 assessed as TPP MIC at 256 ug/ml incubated for 18 hrs under aerobic condition by checkerboard titration assay (reference value: 1024 ug/ml); assay type: functional; settings: dose 256 µg/ml
Escherichia coli [7] = test: Potentiation of TPP-induced antibacterial activity against wild type Escherichia coli BW25113 assessed as TPP MIC at 128 ug/ml incubated for 18 hrs under aerobic condition by checkerboard titration assay (reference value: 1024 ug/ml); assay type: functional; settings: dose 128 µg/ml
Escherichia coli [8] = test: Potentiation of chloramphenicol-induced antibacterial activity against wild type Escherichia coli BW25113 assessed as chloramphenicol MIC at 256 ug/ml incubated for 18 hrs under aerobic condition by checkerboard titration assay (reference value: 16 ug/ml); assay type: functional; settings: dose 256 µg/ml
Escherichia coli [9] = test: Potentiation of chloramphenicol-induced antibacterial activity against wild type Escherichia coli BW25113 assessed as chloramphenicol MIC at 128 ug/ml incubated for 18 hrs under aerobic condition by checkerboard titration assay (reference value: 16 ug/ml); assay type: functional; settings: dose 128 µg/ml
Escherichia coli [10] = test: Potentiation of rifampicin-induced antibacterial activity against wild type Escherichia coli BW25113 assessed as rifampicin MIC at 128 ug/ml incubated for 18 hrs under aerobic condition by checkerboard titration assay (reference value: 16 ug/ml); assay type: functional; settings: dose 128 µg/ml
Escherichia coli [11] = test: Potentiation of rifampicin-induced antibacterial activity against wild type Escherichia coli BW25113 assessed as rifampicin MIC at 256 ug/ml incubated for 18 hrs under aerobic condition by checkerboard titration assay (reference value: 16 ug/ml); assay type: functional; settings: dose 256 µg/ml
Cell membrane [12] = test: Disruption of inner membrane potential in wild type Escherichia coli BW25113 at 512 ug/ml preincubated for 10 mins followed by glucose stimulation and CCCP addition by DiOC2 probe based fluorimetric analysis; assay type: subcellular; settings: dose 512.0 µg/ml
Escherichia coli [13] = test: Potentiation of erythromycin-induced antibacterial activity against wild type Escherichia coli BW25113 assessed as erythromycin MIC at 256 ug/ml incubated for 18 hrs under aerobic condition by checkerboard titration assay (reference value: 128 ug/ml); assay type: functional; settings: dose 256 µg/ml
Escherichia coli [14] = test: Potentiation of erythromycin-induced antibacterial activity against wild type Escherichia coli BW25113 assessed as erythromycin MIC at 128 ug/ml incubated for 18 hrs under aerobic condition by checkerboard titration assay (reference value: 128 ug/ml); assay type: functional; settings: dose 128 µg/ml
Escherichia coli [15] = test: Potentiation of chloramphenicol-induced antibacterial activity against wild type Escherichia coli BW25113 assessed as fold reduction in chloramphenicol MIC at 256 ug/ml incubated for 18 hrs under aerobic condition by checkerboard titration assay relative to chloramphenicol MIC alone; assay type: functional; settings: dose 256 µg/ml
Escherichia coli [16] = test: Potentiation of TPP-induced antibacterial activity against AcrB deficient Escherichia coli BW25113 assessed as TPP MIC at 128 ug/ml incubated for 18 hrs under aerobic condition by checkerboard titration assay (reference value: 256 ug/ml); assay type: functional; settings: dose 128 µg/ml
Escherichia coli [17] = test: Potentiation of chloramphenicol-induced antibacterial activity against AcrB deficient Escherichia coli BW25113 assessed as chloramphenicol MIC at 128 ug/ml incubated for 18 hrs under aerobic condition by checkerboard titration assay (reference value: 2 ug/ml); assay type: functional; settings: dose 128 µg/ml
Escherichia coli [18] = test: Potentiation of erythromycin-induced antibacterial activity against AcrB deficient Escherichia coli BW25113 assessed as erythromycin MIC at 128 ug/ml incubated for 18 hrs under aerobic condition by checkerboard titration assay (reference value: 32 ug/ml); assay type: functional; settings: dose 128 µg/ml
Escherichia coli [19] = test: Potentiation of chloramphenicol-induced antibacterial activity against wild type Escherichia coli BW25113 assessed as fold reduction in chloramphenicol MIC at 128 ug/ml incubated for 18 hrs under aerobic condition by checkerboard titration assay relative to chloramphenicol MIC alone; assay type: functional; settings: dose 128 µg/ml
Escherichia coli [20] = test: Potentiation of erythromycin-induced antibacterial activity against wild type Escherichia coli BW25113 assessed as fold reduction in erythromycin MIC at 128 ug/ml incubated for 18 hrs under aerobic condition by checkerboard titration assay relative to erythromycin MIC alone; assay type: functional; settings: dose 128 µg/ml
Escherichia coli [21] = test: as §1, with “200” for “500”; assay type: functional, organism-based; settings: time 195.0 min
Escherichia coli [22] = test: Potentiation of TPP-induced antibacterial activity against AcrB deficient Escherichia coli BW25113 assessed as TPP MIC at 512 ug/ml incubated for 18 hrs under aerobic condition by checkerboard titration assay (reference value: 256 ug/ml); assay type: functional; settings: dose 512 µg/ml
Escherichia coli [23] = test: Potentiation of erythromycin-induced antibacterial activity against AcrB deficient Escherichia coli BW25113 assessed as erythromycin MIC at 512 ug/ml incubated for 18 hrs under aerobic condition by checkerboard titration assay (reference value: 32 ug/ml); assay type: functional; settings: dose 512 µg/ml
Escherichia coli [24] = test: Potentiation of TPP-induced antibacterial activity against wild type Escherichia coli BW25113 assessed as TPP MIC at 512 ug/ml incubated for 18 hrs under aerobic condition by checkerboard titration assay (reference value: 1024 ug/ml); assay type: functional; settings: dose 512 µg/ml
Escherichia coli [25] = test: Potentiation of chloramphenicol-induced antibacterial activity against wild type Escherichia coli BW25113 assessed as chloramphenicol MIC at 512 ug/ml incubated for 18 hrs under aerobic condition by checkerboard titration assay (reference value: 16 ug/ml); assay type: functional; settings: dose 512 µg/ml
Escherichia coli [26] = test: Potentiation of erythromycin-induced antibacterial activity against wild type Escherichia coli BW25113 assessed as erythromycin MIC at 512 ug/ml incubated for 18 hrs under aerobic condition by checkerboard titration assay (reference value: 128 ug/ml); assay type: functional; settings: dose 512 µg/ml
Escherichia coli [27] = test: as §1, with “100” for “500”; assay type: functional, organism-based; settings: time 195.0 min

Activity (Cell membrane [2]) | MIC (Escherichia coli [3]) [µg/mL] | MIC (Escherichia coli [4]) [µg/mL] | MIC (Escherichia coli [5]) [µg/mL] | MIC (Escherichia coli [6]) [µg/mL] | MIC (Escherichia coli [7]) [µg/mL] | MIC (Escherichia coli [8]) [µg/mL] | MIC (Escherichia coli [9]) [µg/mL] | MIC (Escherichia coli [10]) [µg/mL] | MIC (Escherichia coli [11]) [µg/mL] | Activity (Cell membrane [12]) | MIC (Escherichia coli [13]) [µg/mL] | MIC (Escherichia coli [14]) [µg/mL] | Compound | Activity (Escherichia coli [1]) | fold change (FC) (Escherichia coli [15]) | also measured
 | 2 | 256 | 32 | 256 | 1020 | 2 | 8 | 16 | 16 | Active | 128 | 128 | C#CCNC(=O)c1cc(OCCC(C)C)c2ccccc2c1 | inactive | 8 | MIC (Escherichia coli [16]): 256 µg/mL; MIC (Escherichia coli [17]): 2 µg/mL; MIC (Escherichia coli [18]): 32 µg/mL
inactive | 2 | 256 | 32 | 1020 | 1020 | 4 | 8 | 16 | 16 | inactive | 32 | 64 | CC(C)CCOc1cc(C(=O)Nc2ccccc2C(F)(F)F)cc2ccccc12 | Active |  | 
inactive | 2 |  |  | 1020 | 1020 | 4 | 16 | 16 | 8 | Active | 128 | 128 | CCCNC(=O)c1cc(OCc2ccccc2)c2ccccc2c1 |  |  | 
inactive | 2 | 256 | 32 | 1020 | 1020 | 2 | 4 | 16 | 16 | Active | 128 | 128 | CC(C)CCOc1cc(C(=O)NCc2ccccc2Cl)cc2ccccc12 | Active | 8 | fold change (FC) (Escherichia coli [19]): 4; fold change (FC) (Escherichia coli [20]): 4
inactive | 1 | 256 | 16 | 1020 | 1020 | 4 | 16 | 16 | 4 |  | 16 | 32 | CCCNC(=O)c1cc(OCCC(C)C)c2ccccc2c1 |  |  | fold change (FC) (Escherichia coli [19]): 4; MIC (Escherichia coli [16]): 256 µg/mL; MIC (Escherichia coli [17]): 2 µg/mL; MIC (Escherichia coli [18]): 32 µg/mL; fold change (FC) (Escherichia coli [20]): 4
inactive | 1 | 256 | 32 | 1020 | 1020 | 4 | 8 | 16 | 8 |  | 32 | 64 | CC(C)CCOc1cc(C(=O)NCc2ccccc2)cc2ccccc12 |  |  | 
 |  |  |  | 1020 |  | 16 |  |  | 16 |  | 128 |  | O=C(NCc1ccccc1)c1cc(OCc2ccccc2)c2ccccc2c1 |  |  | MIC (Escherichia coli [22]): 256 µg/mL; MIC (Escherichia coli [23]): 32 µg/mL; MIC (Escherichia coli [24]): 1020 µg/mL; MIC (Escherichia coli [25]): 16 µg/mL; MIC (Escherichia coli [26]): 64 µg/mL
inactive | 2 |  |  | 256 | 1020 | 2 | 16 | 16 | 4 | Active | 128 | 128 | O=C(NCc1ccco1)c1cc(OCc2ccccc2)c2ccccc2c1 |  | 8 | Activity (Escherichia coli [27]): Active
 | 2 | 256 | 32 | 1020 | 1020 | 16 | 16 | 16 | 16 |  | 32 | 64 | COc1ccc(CNC(=O)c2cc(OCCC(C)C)c3ccccc3c2)cc1 | inactive |  | 

More lines, now with the values behind:

Compound | Activity (Cell membrane [2]) | MIC (Escherichia coli [3]) [µg/mL] | MIC (Escherichia coli [4]) [µg/mL] | MIC (Escherichia coli [5]) [µg/mL] | MIC (Escherichia coli [6]) [µg/mL] | MIC (Escherichia coli [7]) [µg/mL] | MIC (Escherichia coli [8]) [µg/mL] | MIC (Escherichia coli [9]) [µg/mL] | MIC (Escherichia coli [10]) [µg/mL] | MIC (Escherichia coli [11]) [µg/mL] | Activity (Cell membrane [12]) | MIC (Escherichia coli [13]) [µg/mL] | MIC (Escherichia coli [14]) [µg/mL] | Activity (Escherichia coli [1]) | fold change (FC) (Escherichia coli [15]) | also measured
NC(=O)c1cc(OCCSc2nc3ccccc3[nH]2)c2ccccc2c1 | inactive | 2 | 256 | 32 | 256 | 1020 | 16 | 16 | 16 | 16 | inactive | 128 | 128 | Active |  | 
NC(=O)c1cc(OCCOc2ccccc2N)c2ccccc2c1 | Active | 2 | 256 | 32 | 1020 | 1020 | 4 | 8 | 16 | 16 | Active | 128 | 128 | Active |  | 
COc1ccc(CNC(=O)c2cc(OCc3ccccc3)c3ccccc3c2)cc1 | Active | 2 |  | 32 | 1020 | 1020 | 4 | 8 | 16 | 4 |  | 128 | 128 |  |  | Activity (Escherichia coli [21]): Active
CC(C)CCOc1cc(C(=O)NC2CCCCC2)cc2ccccc12 | inactive |  |  |  |  | 1020 |  | 2 | 16 |  | inactive |  | 16 |  | 8 | fold change (FC) (Escherichia coli [19]): 8; Activity (Escherichia coli [21]): Active; MIC (Escherichia coli [16]): 256 µg/mL; MIC (Escherichia coli [17]): 2 µg/mL; MIC (Escherichia coli [18]): 32 µg/mL; fold change (FC) (Escherichia coli [20]): 8
CC(C)CCOc1cc(C(=O)NCc2ccco2)cc2ccccc12 | inactive | 2 | 256 | 32 | 1020 | 1020 | 4 | 8 | 16 | 16 | Active | 32 | 64 | Active |  | 
NC(=O)c1cc(OCCN2CCN(c3ccccc3)CC2)c2ccccc2c1 | inactive | 2 | 256 | 32 | 512 | 1020 | 2 | 8 | 16 | 16 | inactive | 128 | 128 |  | 8 | Activity (Escherichia coli [21]): Active
